Laboratory results: PubChem BioAssay AID2060605 (Molecular Pharmacology Branch, DTP, NCI, 2025)
Values belong to the compound of their own block, whether it stands above or below them.

Test system: 947758-054-R-J2-PDC spheroid growth, percent test/control
Experiment: Anticancer human tumor 947758-054-R-J2-PDC patient-derived colon adenocarcinoma cell line growth inhibition [CLK]
Conditions: spheroids with HUVEC and MSC; for IC50: curve of first compound; for viability, T/C: stronger effect = lower value
Summary of the method: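 Multi-cell-type spheroids combined patient-derived tumor cells with HUVEC endothelial cells and human mesenchymal stem cells. Paired agents were dosed in half-log steps down from about clinical Cmax, or from 10 microM where Cmax was unknown.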

[1] = second compound 0.0316 µM, first compound 0.0316 µM
[2] = second compound 0.0316 µM, first compound 0.1 µM
[3] = second compound 0.0316 µM, first compound 0.316 µM
[4] = second compound 0.0316 µM, first compound 1 µM
[5] = second compound 0.0316 µM, first compound 3.16 µM
[6] = second compound 0.0316 µM, first compound 10 µM
[7] = second compound 0.1 µM, first compound 0.0316 µM
[8] = second compound 0.1 µM, first compound 0.1 µM
[9] = second compound 0.1 µM, first compound 0.316 µM
[10] = second compound 0.1 µM, first compound 1 µM
[11] = second compound 0.1 µM, first compound 3.16 µM
[12] = second compound 0.1 µM, first compound 10 µM
[13] = second compound 0.316 µM, first compound 0.0316 µM
[14] = second compound 0.316 µM, first compound 0.1 µM
[15] = second compound 0.316 µM, first compound 0.316 µM
[16] = second compound 0.316 µM, first compound 1 µM
[17] = second compound 0.316 µM, first compound 3.16 µM
[18] = second compound 0.316 µM, first compound 10 µM
[19] = second compound 1 µM, first compound 0.0316 µM
[20] = second compound 1 µM, first compound 0.1 µM
[21] = second compound 1 µM, first compound 0.316 µM
[22] = second compound 1 µM, first compound 1 µM
[23] = second compound 1 µM, first compound 3.16 µM
[24] = second compound 1 µM, first compound 10 µM
[25] = second compound 3.16 µM, first compound 0.0316 µM
[26] = second compound 3.16 µM, first compound 0.1 µM
[27] = second compound 3.16 µM, first compound 0.316 µM
[28] = second compound 3.16 µM, first compound 1 µM
[29] = second compound 3.16 µM, first compound 3.16 µM
[30] = second compound 3.16 µM, first compound 10 µM
[31] = second compound 10 µM, first compound 0.0316 µM
[32] = second compound 10 µM, first compound 0.1 µM
[33] = second compound 10 µM, first compound 0.316 µM
[34] = second compound 10 µM, first compound 1 µM
[35] = second compound 10 µM, first compound 3.16 µM
[36] = second compound 10 µM, first compound 10 µM
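Note: spheroids exposed to compounds for one week before readout.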
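Throughout, for viability, T/C: 100% = DMSO vehicle control wells.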

IC50 (second compound 0.0316 µM): 2890 nM | IC50 (second compound 0.1 µM): 3200 nM | IC50 (second compound 0.316 µM): 2440 nM | IC50 (second compound 1 µM): 2300 nM | IC50 (second compound 3.16 µM): 751 nM | IC50 (second compound 10 µM): 35.2 nM
SMILES: CC1(C)CCC(CN2CCN(c3ccc(C(=O)NS(=O)(=O)c4ccc(NCC5CCOCC5)c([N+](=O)[O-])c4)c(Oc4cnc5[nH]ccc5c4)c3)CC2)=C(c2ccc(Cl)cc2)C1 + CNC(=O)c1ccc(Nc2nc(OC3CCCC3)c3c(-c4ccc5nc(C)oc5c4)c[nH]c3n2)c(OC)c1
viability, T/C [1]: 105% | viability, T/C [2]: 80.1% | viability, T/C [3]: 93.6% | viability, T/C [4]: 94.4% | viability, T/C [5]: 46.3% | viability, T/C [6]: 1.33% | viability, T/C [7]: 104% | viability, T/C [8]: 113% | viability, T/C [9]: 82.1% | viability, T/C [10]: 94% | viability, T/C [11]: 47.8% | viability, T/C [12]: 0.8% | viability, T/C [13]: 105% | viability, T/C [14]: 85.2% | viability, T/C [15]: 70.7% | viability, T/C [16]: 76.8% | viability, T/C [17]: 46.9% | viability, T/C [18]: 1.58% | viability, T/C [19]: 64.8% | viability, T/C [20]: 56.7% | viability, T/C [21]: 55.8% | viability, T/C [22]: 68.5% | viability, T/C [23]: 45.8% | viability, T/C [24]: 0.6% | viability, T/C [25]: 59.1% | viability, T/C [26]: 33.4% | viability, T/C [27]: 63.3% | viability, T/C [28]: 48.4% | viability, T/C [29]: 26.5% | viability, T/C [30]: 2.21% | viability, T/C [31]: 55% | viability, T/C [32]: 42.5% | viability, T/C [33]: 40.2% | viability, T/C [34]: 42.3% | viability, T/C [35]: 16.3% | viability, T/C [36]: 2.68%

IC50 (second compound 0.0316 µM): 3050 nM | IC50 (second compound 0.1 µM): 2220 nM | IC50 (second compound 0.316 µM): 1820 nM | IC50 (second compound 1 µM): 308 nM | IC50 (second compound 3.16 µM): 196 nM | IC50 (second compound 10 µM): < 31.6 nM
SMILES: CC1COCCN1c1cc(C2(S(C)(=N)=O)CC2)nc(-c2ccnc3[nH]ccc23)n1 (stereo unspecified) + CNC(=O)c1ccc(Nc2nc(OC3CCCC3)c3c(-c4ccc5nc(C)oc5c4)c[nH]c3n2)c(OC)c1
viability, T/C [1]: 95.8% | viability, T/C [2]: 103% | viability, T/C [3]: 114% | viability, T/C [4]: 87% | viability, T/C [5]: 49.7% | viability, T/C [6]: 22.2% | viability, T/C [7]: 110% | viability, T/C [8]: 105% | viability, T/C [9]: 91.6% | viability, T/C [10]: 88.8% | viability, T/C [11]: 32.8% | viability, T/C [12]: 18.8% | viability, T/C [13]: 90.5% | viability, T/C [14]: 93% | viability, T/C [15]: 71.8% | viability, T/C [16]: 68% | viability, T/C [17]: 36% | viability, T/C [18]: 13.2% | viability, T/C [19]: 72.4% | viability, T/C [20]: 53.3% | viability, T/C [21]: 48.5% | viability, T/C [22]: 45.8% | viability, T/C [23]: 22% | viability, T/C [24]: 8.76% | viability, T/C [25]: 66.8% | viability, T/C [26]: 43.6% | viability, T/C [27]: 47.2% | viability, T/C [28]: 45.7% | viability, T/C [29]: 19.3% | viability, T/C [30]: 8.82% | viability, T/C [31]: 50.7% | viability, T/C [32]: 44.7% | viability, T/C [33]: 40.5% | viability, T/C [34]: 26.7% | viability, T/C [35]: 15.1% | viability, T/C [36]: 9.5%

IC50 (second compound 0.0316 µM): < 9.49 nM | IC50 (second compound 0.1 µM): < 9.49 nM | IC50 (second compound 0.316 µM): 11.2 nM | IC50 (second compound 1 µM): < 9.49 nM | IC50 (second compound 3.16 µM): < 9.49 nM | IC50 (second compound 10 µM): < 9.49 nM
SMILES: NC(=O)C(=Cn1cnc(-c2cc(C(F)(F)F)cc(C(F)(F)F)c2)n1)c1cncnc1 + CNC(=O)c1ccc(Nc2nc(OC3CCCC3)c3c(-c4ccc5nc(C)oc5c4)c[nH]c3n2)c(OC)c1
viability, T/C (second compound 0.0316 µM, first compound 0.00949 µM): 46.7% | viability, T/C (second compound 0.0316 µM, first compound 0.03 µM): 37.3% | viability, T/C (second compound 0.0316 µM, first compound 0.0949 µM): 34.4% | viability, T/C (second compound 0.0316 µM, first compound 0.3 µM): 33.6% | viability, T/C (second compound 0.0316 µM, first compound 0.949 µM): 8.62% | viability, T/C (second compound 0.0316 µM, first compound 3 µM): 2.27% | viability, T/C (second compound 0.1 µM, first compound 0.00949 µM): 45.2% | viability, T/C (second compound 0.1 µM, first compound 0.03 µM): 32.4% | viability, T/C (second compound 0.1 µM, first compound 0.0949 µM): 25.6% | viability, T/C (second compound 0.1 µM, first compound 0.3 µM): 22.8% | viability, T/C (second compound 0.1 µM, first compound 0.949 µM): 4.68% | viability, T/C (second compound 0.1 µM, first compound 3 µM): 0.78% | viability, T/C (second compound 0.316 µM, first compound 0.00949 µM): 53.1% | viability, T/C (second compound 0.316 µM, first compound 0.03 µM): 32.4% | viability, T/C (second compound 0.316 µM, first compound 0.0949 µM): 15.1% | viability, T/C (second compound 0.316 µM, first compound 0.3 µM): 11.8% | viability, T/C (second compound 0.316 µM, first compound 0.949 µM): 3.26% | viability, T/C (second compound 0.316 µM, first compound 3 µM): 0.42% | viability, T/C (second compound 1 µM, first compound 0.00949 µM): 25.9% | viability, T/C (second compound 1 µM, first compound 0.03 µM): 20.6% | viability, T/C (second compound 1 µM, first compound 0.0949 µM): 12% | viability, T/C (second compound 1 µM, first compound 0.3 µM): 3.56% | viability, T/C (second compound 1 µM, first compound 0.949 µM): 1.32% | viability, T/C (second compound 1 µM, first compound 3 µM): 0.36% | viability, T/C (second compound 3.16 µM, first compound 0.00949 µM): 20.4% | viability, T/C (second compound 3.16 µM, first compound 0.03 µM): 16.3% | viability, T/C (second compound 3.16 µM, first compound 0.0949 µM): 10.9% | viability, T/C (second compound 3.16 µM, first compound 0.3 µM): 1.11% | viability, T/C (second compound 3.16 µM, first compound 0.949 µM): 0.26% | viability, T/C (second compound 3.16 µM, first compound 3 µM): 0.36% | viability, T/C (second compound 10 µM, first compound 0.00949 µM): 15.3% | viability, T/C (second compound 10 µM, first compound 0.03 µM): 13.7% | viability, T/C (second compound 10 µM, first compound 0.0949 µM): 5.14% | viability, T/C (second compound 10 µM, first compound 0.3 µM): 0.42% | viability, T/C (second compound 10 µM, first compound 0.949 µM): 0.28% | viability, T/C (second compound 10 µM, first compound 3 µM): 0.34%
